According to ChEMBL document CHEMBL5620419, “Discovery of new Lenalidomide derivatives as potent and selective GSPT1 degraders” (Eur J Med Chem, 2023):

Target: Protein cereblon/Eukaryotic peptide chain release factor GTP-binding subunit ERF3A (Homo sapiens, UniProt P15170+Q96SW2)
Assay: PROTAC activity at CRBN/GSPT1 in human U-937 cells assessed as degradation of GSPT1 measured after 6 hrs by Western blot analysis
Format: cell-based

Protein cereblon/Eukaryotic peptide chain release factor GTP-binding subunit ERF3A, sequence (Q96SW2 whole entry): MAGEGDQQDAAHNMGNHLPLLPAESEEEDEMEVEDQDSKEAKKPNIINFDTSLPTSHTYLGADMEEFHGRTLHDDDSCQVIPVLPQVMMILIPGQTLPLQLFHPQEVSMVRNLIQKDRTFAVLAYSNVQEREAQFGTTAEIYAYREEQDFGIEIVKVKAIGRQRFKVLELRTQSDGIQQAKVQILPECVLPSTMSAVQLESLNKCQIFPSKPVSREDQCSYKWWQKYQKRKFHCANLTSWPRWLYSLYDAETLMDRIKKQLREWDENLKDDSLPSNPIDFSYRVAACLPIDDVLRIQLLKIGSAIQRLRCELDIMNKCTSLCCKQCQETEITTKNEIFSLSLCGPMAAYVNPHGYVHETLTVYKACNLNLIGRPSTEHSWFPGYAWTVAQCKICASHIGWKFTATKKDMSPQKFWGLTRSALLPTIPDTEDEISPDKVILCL
Protein cereblon/Eukaryotic peptide chain release factor GTP-binding subunit ERF3A, sequence (P15170 whole entry): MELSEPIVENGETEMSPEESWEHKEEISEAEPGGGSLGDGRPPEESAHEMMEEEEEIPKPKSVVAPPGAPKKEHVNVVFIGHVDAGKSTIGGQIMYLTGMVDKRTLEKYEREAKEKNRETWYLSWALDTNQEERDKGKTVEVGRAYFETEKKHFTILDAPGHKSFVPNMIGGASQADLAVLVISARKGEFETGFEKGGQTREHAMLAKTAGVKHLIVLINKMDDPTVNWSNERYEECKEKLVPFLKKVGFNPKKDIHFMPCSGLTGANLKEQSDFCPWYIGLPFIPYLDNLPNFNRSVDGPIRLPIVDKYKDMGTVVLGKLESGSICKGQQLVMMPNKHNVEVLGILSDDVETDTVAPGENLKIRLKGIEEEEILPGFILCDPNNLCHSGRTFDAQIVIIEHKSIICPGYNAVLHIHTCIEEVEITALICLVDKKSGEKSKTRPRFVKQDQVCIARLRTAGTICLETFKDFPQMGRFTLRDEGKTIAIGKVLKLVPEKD

| EC50 [nM] | SMILES |
| --- | --- |
| 251 | Cc1c(Cl)cc(NC(=O)CCc2ccc3c(c2)C(=O)N(C2CCC(=O)NC2=O)C3)cc1CN1CCN(C2CCOCC2)CC1 (centres undefined) |
| 220 | Cc1c(Cl)cc(NC(=O)CCc2ccc3c(c2)C(=O)N(C2CCC(=O)NC2=O)C3)cc1CN1CCN(C2COC2)CC1 (centres undefined) |
| 447 | Cc1ccc(NC(=O)CCc2ccc3c(c2)C(=O)N(C2CCC(=O)NC2=O)C3=O)cc1Cl (centres undefined) |
| 3060 | Cc1ccc(NC(=O)/C=C/c2cccc3c2CN(C2CCC(=O)NC2=O)C3=O)cc1Cl (centres undefined) |
